Measurements: patent US6258790A, “Antisense modulation of integrin α4 expression” (Isis Pharmaceuticals, Inc., priority 1999, dated 2001)

Key:
[1] = tested on: human integrin α4; test: Integrin α4 protein expression in A375 cells after electroporation of oligonucleotide (flow cytometry); assay type: cell-based; conditions: 24 hours
Protocol: A375 cells were treated with ISIS 107245, 107248, 107252, 107255 and 107259 by electroporation at 175 volts, r=1, c=1000, 0.2 ml Opti-MEM, 1×10^6 cells /ml, 2 mm gap electrode using a BTX Electro Cell Manipulator 600 (Genetronics, San Diego Calif.). Oligonucleotide concentrations were 1, 3, 10 and 30 μM. Cells were harvested 24 hours after oligonucleotide treatment and strained with 2 ug/ml CD49d-FITC for flow cytometry as in the previous examples.
ISIS 107248 was compared directly to ISIS 27104 for ability to inhibit integrin α4 expression in A375 melanoma cells. Oligonucleotides were electroporated into cells as in the previous example.

[2] = tested on: human integrin α4; test: Inhibition of human integrin α4 protein levels by antisense oligonucleotides (LIPOFECTIN, flow cytometry with CD49d-FITC) in A375 melanoma cells; assay type: cell-based; conditions: Table 24; A375 cells; lipofectin; as Example 8

Substance	% Control ([1]; Table 25, 1 nM as printed) [%]	% Control ([1]; Table 25, 10 nM) [%]	% Control ([1]; Table 25, 30 nM) [%]	% Control [2] [%]
107245 (antisense GTTGATATAACTCCAACTGT; chemistry not given here) [compound 107245]	27.1	64.4	30.3	35
107252 (antisense AAGAGTAATCATTGCTGAGA; chemistry not given here) [compound 107252]	17.4	7.9	2.9	35
107255 (antisense AAGTCTAAGACTTCTCCAGT; chemistry not given here) [compound 107255]	50.6	22.9	19.4	36
107259 (antisense GGAACACAGCCCGTAGGAAA; chemistry not given here) [compound 107259]	17.7	42.9	19.4	37
